From the NIST ThermoML archive (doi:10.1016/j.jct.2013.12.016)
Numbers after ± are expanded uncertainties.

Assays:
[1] = Molar enthalpy of transition or fusion; conditions: DSC
[2] = DTA

| Molar enthalpy of transition or fusion ([1]; Crystal) [kcal/mol] | Triple point temperature ([2]; Crystal) [K] | Molar enthalpy of transition or fusion ([1]; Crystal 1) [kcal/mol] | Molar enthalpy of transition or fusion ([1]; Crystal 2) [kcal/mol] | Triple point temperature ([2]; Crystal 1) [K] | Triple point temperature ([2]; Crystal 2) [K] | SMILES |
| --- | --- | --- | --- | --- | --- | --- |
| 6.48 ± 0.143 | 482.02 ± 0.39 |  |  |  |  | CC[C@H](C)[C@H](NC(C)=O)C(=O)NC (racemic) [N-acetyl-N'-methyl-DL-isoleucinamide] |
| 6.27 ± 0.143 | 432.29 ± 0.39 |  |  |  |  | CCCC(NC(C)=O)C(=O)NC (racemic) [N-acetyl-N'-methyl-DL-norvalinamide] |
| 6.23 ± 0.139 | 378.12 ± 0.39 |  |  |  |  | CNC(=O)C1CCCN1C(C)=O (stereo unspecified) [1-acetyl-N-methylprolinamide] |
| 5.65 ± 0.129 | 430.73 ± 0.39 |  |  |  |  | CNC(=O)CNC(C)=O [2-acetamido-N-methylacetamide] |
| 5.91 ± 0.134 | 434.83 ± 0.4 |  |  |  |  | CCC(NC(C)=O)C(=O)NC (stereo unspecified) [2-acetamido-N-methylbutanamide] |
| 8.21 ± 0.177 | 444 ± 0.39 |  |  |  |  | CCCCC(NC(C)=O)C(=O)NC (stereo unspecified) [2-acetamido-N-methylhexanamide] |
|  |  | 3.8 ± 0.115 | 1.84 ± 0.0765 | 411.9 ± 2 | 368.43 ± 0.39 | CNC(=O)C(C)NC(C)=O (stereo unspecified) [2-acetamido-N-methylpropanamide] |
| 5.96 ± 0.134 | 375.85 ± 0.39 |  |  |  |  | CNC(=O)[C@@H]1CCCN1C(C)=O [(2S)-1-acetyl-N-methyl-2-pyrrolidinecarboxamide] |
| 9.11 ± 0.21 | 525.72 ± 0.39 |  |  |  |  | CC[C@H](C)[C@H](NC(C)=O)C(=O)NC [(2S,3S)-2-acetamido-N,3-dimethylpentanamide] |
| 5.54 ± 0.127 | 438.2 ± 0.39 |  |  |  |  | CNC(=O)[C@H](CC(C)C)NC(C)=O [(S)-2-acetamido-N,4-dimethylpentanamide] |
|  |  | 5.94 ± 0.134 | 1.34 ± 0.0454 | 454.8 ± 0.39 | 395.07 ± 0.41 | CNC(=O)[C@H](C)NC(C)=O [(S)-2-acetamido-N-methylpropanamide] |
